From patent publication US20200308622A1, “Phage-Mediated Molecular Detection Methods and Related Aspects” (United States of America as represented by the Secretary of …, priority 2017, published 2020)

How the values were obtained:
MRSA strain SA-1012.COI = test: PMMD (phage K RT-qPCR) antibiotic sensitivity assay, MRSA; format: cell-based, Staphylococcus aureus; details: cefoxitin 4 μg/ml, with vs without fox, phage K gp125 RNA qPCR
Experimental: (§1) Staphylococcus aureus (S. aureus) bacterial cultures were grown for one hour in LB-Lennox (10 g/l Tripone, 5 g/l yeast extract and 5 g/l NaCl) media at 37° C. with strong aeration (225 rpm shaking). For antibiotic sensitivity assays the cultures were grown for one or three hours, as indicated, and cefoxitin (Sigma-Aldrich) was added at a final concentration of 4 μg/ml using a 1,000× stock in water.
(§2) The reactions were performed by mixing 50 μl of S. aureus bacterial cultures (˜2×10^9 cfu/ml) and 50 μl of a phage K lysate ( about 5×10^8 pfu/ml) or 1 μl of CsCl gradient purified phage K (about 1×10^10 pfu/ml). The mixtures were incubated on ice for 3-4 minutes and the infections were allowed to proceed for 10 minutes, unless indicated otherwise, at 37° C. with shaking (400 rpm). Five minutes prior to the end of the incubation, lysostaphin (Sigma-Aldrich) w as added from a 20× stock (2 mg/ml).
(§3) Single-step fluorescent quantitative or real-time PCR (qPCR) was done with Luna one-step RT-qPCR kit (NEB) using low profile clear 0.2 ml PCR tubes and optical ultraclear flat caps (BioRad). The reactions were run in a CFX96 real-time PCR detection system (BioRad) with CFX Manager 3. Quantification cycle values (Cqs) were auto calculated by the software, and ranged front about […]. […] 10 minutes/35× (95° C. 10 seconds, 60° C. 30 seconds, plate read). […]

MSSA strain RN4220 = test: PMMD (phage K RT-qPCR) antibiotic sensitivity assay, MSSA; format: cell-based, Staphylococcus aureus; details: cefoxitin 4 μg/ml, with vs without fox, phage K gp125 RNA qPCR
Experimental: as §1, §2, §3

## CO[C@@]1(NC(=O)Cc2cccs2)C(=O)N2C(C(=O)O)=C(COC(N)=O)CS[C@@H]21 [fox, cefoxitin]
MRSA strain SA-1012.COI; one hour of incubation
  Cq increase in the presence of fox: about 1.0
MRSA strain SA-1012.COI; three hours of incubation
  Cq increase in the presence of fox: about 0.0
MSSA strain RN4220; one hour of incubation
  increase of Cq values on addition of fox in the media: about 1.5
MSSA strain RN4220; three hours of incubation
  increase of Cq values on addition of fox in the media: about 11.5
